Measurements published in patent publication US7271171B2, “Adenosine A3 receptor modulators” (King Pharmaceuticals Research and Development, Inc., priority 1998, dated 2007).
Counter-ions that a name gives are not always drawn.

Experiments:
[1] = biological target: T1, human recombinant A3 adenosine receptor (Homo sapiens, UniProt P0DMS8); assay: Human cloned A3 receptor binding, [3H] MRE3008-F20, CHO cells; set-up: expressed in transfected cells; host or cells: CHO; details: for Ki: CHO cells, [3H] MRE3008-F20, read-out: hA3 (Ki); for hA1/hA3 / hA2A/hA3 / hA2B/hA3: selectivity ratio of Ki values
T1 sequence (P0DMS8 1-318): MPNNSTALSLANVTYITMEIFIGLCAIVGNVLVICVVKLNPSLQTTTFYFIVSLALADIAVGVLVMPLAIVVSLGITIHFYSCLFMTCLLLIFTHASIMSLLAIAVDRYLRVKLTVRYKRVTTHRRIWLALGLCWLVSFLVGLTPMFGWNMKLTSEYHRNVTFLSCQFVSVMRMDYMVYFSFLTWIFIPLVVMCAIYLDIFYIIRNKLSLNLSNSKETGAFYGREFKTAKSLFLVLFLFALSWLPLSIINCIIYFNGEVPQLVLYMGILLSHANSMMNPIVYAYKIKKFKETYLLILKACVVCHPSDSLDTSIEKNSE
Description: The cells are grown adherently and maintained in Dulbecco's modified Eagle's medium with nutrient mixture F12 without nucleosides at 37 ° […] Cells are split two or three times weekly and then the culture medium is removed for membrane preparations. The cells are washed with phosphate-buffered saline and scraped off flasks in ice cold hypotonic buffer (5 mM Tris HCl, 2 mM EDTA, pH 7.4). The cell suspension is homogenized with Polytron and the homogenate is centrifuged for 30 min. at 48,000 g. The membrane pellet is re-suspended in 50 mM Tris HCl buffer at pH 7.4 for A1 adenosine receptors, in 50 mM Tris HCl, 10 mM MgCl2 at pH 7.4 for A2A adenosine receptors, in 50 mM Tris HCl, 10 mM MgCl2, 1 mM EDTA at pH 7.4 for A3 adenosine receptors and are utilized for binding and adenylate cyclase assays.

[2] = biological target: T2, human recombinant A2B adenosine receptors (Homo sapiens, UniProt P29275); assay: Human cloned A2B receptor binding, [3H]-DPCPX, HEK-293 cells; details: read-out: hA2B (Ki)
T2 construct: host or cells: HEK-293
T2 sequence (P29275 1-332): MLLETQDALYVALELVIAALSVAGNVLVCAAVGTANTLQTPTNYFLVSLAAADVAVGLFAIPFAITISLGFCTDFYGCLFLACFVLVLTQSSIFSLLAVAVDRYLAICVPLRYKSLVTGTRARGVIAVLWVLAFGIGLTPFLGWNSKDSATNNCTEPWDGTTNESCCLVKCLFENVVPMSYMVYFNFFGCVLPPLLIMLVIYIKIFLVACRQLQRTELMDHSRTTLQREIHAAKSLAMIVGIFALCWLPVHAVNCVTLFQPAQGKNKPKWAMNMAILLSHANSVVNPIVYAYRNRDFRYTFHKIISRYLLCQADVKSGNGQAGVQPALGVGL
Description: Binding of [^3H]-DPCPX to HEK-293 cells (Receptor Biology, Inc., Beltsville, Md.) transfected with the human recombinant A2B adenosine receptors is performed essentially to the method described by Varani and coworkers (Mol. Pharmacol.). In particular, assays are carried out for 60 min. at 25° C. in 0.1 mL of 50 mM Tris HCl Buffer, 10 mM MgCl2, 1 mM EDTA, 0.1 mM benzamidine pH 7.4, 2 IU/ml adenosine deaminase containing 40 nM [^3H]-DPCPX, diluted membranes (20 µg of protein/assay) and at least 6-8 different concentration of tested compounds. Non-specific binding is determined in the presence of 100 μM of NECA and is always 30% of the total binding.

[3] = biological target: T3, human recombinant A1 adenosine receptor (Homo sapiens, UniProt P30542); assay: Human cloned A1 receptor binding, [3H]-DPCPX, CHO cells; details: read-out: hA1 (Ki)
T3 construct: expressed in transfected cells; host or cells: CHO
T3 sequence (P30542 1-326): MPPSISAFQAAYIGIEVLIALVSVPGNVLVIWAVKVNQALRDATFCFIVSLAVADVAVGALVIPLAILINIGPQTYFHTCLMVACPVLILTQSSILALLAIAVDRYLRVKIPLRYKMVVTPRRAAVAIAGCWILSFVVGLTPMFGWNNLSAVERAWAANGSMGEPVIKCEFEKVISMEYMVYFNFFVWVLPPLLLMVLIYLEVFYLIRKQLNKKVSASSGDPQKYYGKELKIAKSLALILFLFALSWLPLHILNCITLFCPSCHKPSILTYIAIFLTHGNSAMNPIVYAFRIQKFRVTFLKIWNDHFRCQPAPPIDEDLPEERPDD
Description: (§1) The expression of the human A1, A2A, A2B and A3 receptors in CHO cells has been previously described (Klotz et al., 1998). The cells are grown adherently and maintained in Dulbecco's modified Eagle's medium with nutrient mixture F12 without nucleosides at 37 ° C. in 5% CO2/95% air. Cells are split two or three times weekly and then the culture medium is removed for membrane preparations. The cells are washed with phosphate-buffered saline and scraped off flasks in ice cold hypotonic buffer (5 mM Tris HCl, 2 mM EDTA, pH 7.4). The cell suspension is homogenized with Polytron and the homogenate is centrifuged for 30 min. at 48,000 g. The membrane pellet is re-suspended in 50 mM Tris HCl buffer at pH 7.4 for A1 adenosine receptors, in 50 mM Tris HCl, 10 mM MgCl2 at pH 7.4 for A2A adenosine receptors, in 50 mM Tris HCl, 10 mM MgCl2, 1 mM EDTA at pH 7.4 for A3 adenosine receptors and are utilized for binding and adenylate cyclase assays.
Binding of [^3H]-DPCPX to CHO cells transfected with the human recombinant A1 adenosine receptor is performed according to the method previously described by Klotz and coworkers (Klotz, K. N.; Cristalli, G.; Grifantini, M.; Vittori, S.; Lohse, M. J., “Photoaffinity labeling of A1 adenosine receptors,” J. Biol. Chem., 260, 14659-14664, 1985).
(§2) Displacement experiments are performed for 120 min. at 25° C. in 0.20 mL of buffer containing 1 nM [^3H]-DPCPX, 20 μL of diluted membranes (50 μg of protein/assay) and at least 6-8 different concentrations of examined compounds. Non-specific binding is determined in the presence of 10 μM of CHA and this is always 10% of the total binding. Binding of [^3H]-SCH58261 to CHO cells transfected with the human recombinant A2A adenosine receptors (50 μg of protein/assay) was performed according to Varani et al. (Varani, K; Cacciari, B.; Baraldi, P. G.; Dionisotti, S.; Ongini, E.; Borea, P. A., “Binding affinity of adenosine receptor agonists and antagonists at human cloned […] adenosine receptors,” Life Sci., 63, 81-87, 1998). In competition studies, at least 6-8 different concentrations of compounds are used and non-specific binding is determined in the presence of 50 μM NECA for an incubation time of 60 min. at 25° C.

[4] = biological target: T4, human recombinant A2A adenosine receptors (Homo sapiens, UniProt P29274); assay: Human cloned A2A receptor binding, [3H]-SCH58261, CHO cells; details: read-out: hA2A (Ki)
T4 construct: expressed in transfected cells; host or cells: CHO
T4 sequence (P29274 whole entry): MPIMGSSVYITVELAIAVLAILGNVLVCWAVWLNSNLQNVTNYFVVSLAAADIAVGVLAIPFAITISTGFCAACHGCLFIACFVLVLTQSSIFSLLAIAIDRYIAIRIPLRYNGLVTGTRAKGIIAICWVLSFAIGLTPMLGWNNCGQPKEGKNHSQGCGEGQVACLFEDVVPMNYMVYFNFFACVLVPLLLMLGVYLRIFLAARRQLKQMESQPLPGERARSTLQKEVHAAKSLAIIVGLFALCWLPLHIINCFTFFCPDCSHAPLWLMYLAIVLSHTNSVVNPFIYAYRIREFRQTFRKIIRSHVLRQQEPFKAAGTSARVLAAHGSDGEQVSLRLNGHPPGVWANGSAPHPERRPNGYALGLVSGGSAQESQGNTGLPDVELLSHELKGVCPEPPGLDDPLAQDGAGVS
Description: as §1, §2

rA2A adenosine receptor = biological target: T5, rA2A adenosine receptor (Rattus norvegicus, UniProt P30543); assay: Rat A2A adenosine receptor binding assay, [3H]SCH58261 displacement, rat striatum membranes; details: rat striatum membranes, [3H]SCH58261; read-out: rA2A (Ki)
T5 construct: membranes of rat striatum (80-100 μmg of protein/assay); from tissue; host or cells: striatum of male Wistar rats
T5 sequence (P30543 whole entry): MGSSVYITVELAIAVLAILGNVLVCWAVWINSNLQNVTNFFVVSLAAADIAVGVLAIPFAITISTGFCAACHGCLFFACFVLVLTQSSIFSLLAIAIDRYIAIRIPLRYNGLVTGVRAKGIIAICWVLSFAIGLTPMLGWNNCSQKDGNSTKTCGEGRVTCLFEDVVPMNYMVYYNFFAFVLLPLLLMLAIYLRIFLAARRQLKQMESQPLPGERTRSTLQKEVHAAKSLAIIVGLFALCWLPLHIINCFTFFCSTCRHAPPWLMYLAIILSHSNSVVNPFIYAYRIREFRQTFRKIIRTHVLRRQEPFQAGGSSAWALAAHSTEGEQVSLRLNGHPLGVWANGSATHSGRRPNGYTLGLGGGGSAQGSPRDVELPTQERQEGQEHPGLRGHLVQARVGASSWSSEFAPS
Description: (§3) Male Wistar rats (200-250 g) were decapitated and the whole brain and striatum dissected on ice. […] The homogenate was centrifuged at 48,000 for 10 min, and the pellet was resuspended in the same buffer containing 2 IU/mL adenosine deaminase. After 30 min incubation at 37° C., the membranes were centrifuged and pellets were stored at −80° C. Prior to freezing, an aliquot of homogenate was removed for protein assay with bovine albumin as reference standard. Binding assays were performed on rat brain and striatum membranes respectively, in the presence of 10 mM MgCl2 at 25° C.
(§4) Separation of bound from free radio ligand was performed by rapid filtration through Whatman GF/B filters which were washed three times with ice-cold buffer. Filter bound radioactivity was measured by scintillation spectrometry after addition of 5 mL of Aquassure. […] Ki values were calculated from the Cheng-Prusoff equation. All binding data were analyzed using the nonlinear regression curve-fitting computer program LIGAND.

rA1 adenosine receptor = biological target: T6, rA1 adenosine receptor (Rattus norvegicus, UniProt P25099); assay: Rat A1 adenosine receptor binding assay, [3H]CHA displacement, rat brain membranes
T6 construct: membranes of rat brain (150-200 μg- of protein/assay); from tissue; host or cells: whole brain of male Wistar rats
T6 sequence (P25099 1-326): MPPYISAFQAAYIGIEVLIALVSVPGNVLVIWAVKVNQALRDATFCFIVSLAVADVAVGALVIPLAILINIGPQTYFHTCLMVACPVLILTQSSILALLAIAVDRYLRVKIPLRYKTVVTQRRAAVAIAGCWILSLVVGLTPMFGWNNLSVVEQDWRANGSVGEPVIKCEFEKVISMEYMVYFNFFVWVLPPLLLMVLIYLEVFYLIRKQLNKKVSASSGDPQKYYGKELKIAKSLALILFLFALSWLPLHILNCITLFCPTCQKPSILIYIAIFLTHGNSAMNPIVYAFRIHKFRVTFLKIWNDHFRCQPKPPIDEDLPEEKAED
Description: as §3, §4

[5] = biological target: T1, human recombinant A3 adenosine receptor; assay: Human cloned A3 adenosine receptor binding assay, [125I]AB-MECA, HEK-293 membranes; set-up: USA; host or cells: HEK-293; details: for Ki: HEK-293 membranes, [125I]AB-MECA, read-out: hA3 (Ki); for rA1/hA3 / rA2A/hA3: selectivity ratio of Ki values

| Compound | Ki [2] [nM] | Ki [3] [nM] | Ki [4] [nM] | Ki (rA2A adenosine receptor) [nM] | Ki (rA1 adenosine receptor) [nM] | Ki [5] [nM] | rA1/hA3 [5] | rA2A/hA3 [5] | also measured |
| --- | --- | --- | --- | --- | --- | --- | --- | --- | --- |
| CN1CCN(S(=O)(=O)c2ccc(NC(=O)Nc3nc4nn(C)cc4c4nc(-c5ccco5)nn34)cc2)CC1 [Compound 105, N-[2-(2-furyl)-8-methyl-8H-pyrazolo[4,3-e][1,2,4]triazolo[1,5-c]pyrimidin-5-yl]-N′{-4-[(4-methylpiperazin-1-yl)sulfonyl]-phenyl}urea] | > 1000 | > 1000 | > 1000 |  |  |  |  |  | Ki [1]: 29 nM; hA1/hA3 [1]: 34.5; hA2A/hA3 [1]: 34.5; hA2B/hA3 [1]: 34.5 |
| CCN(CC)c1ccc(NC(=O)Nc2nc3nn(C)cc3c3nc(-c4ccco4)nn23)cc1 [Compound 101, N-[4-(diethylamino)phenyl]-N′-[2-(2-furyl)-8-methyl-8H -pyrazolo[4,3-e][1,2,4]triazolo[1,5-c]pyrimidin-5-yl]urea] | 350 | 580 | 523 |  |  |  |  |  |  |
| CCN(CC)c1ccc(NC(=O)Nc2nc3nn(C)cc3c3nc(-c4ccco4)nn23)cc1 [Compound 102, N-[8-methyl-2-(2-furyl)-8H-pyrazolo[4,3-e][1,2,4]triazolo[1,5-c]pyrimidin-5-yl]-N′-[4-(diethylamino)phenyl]urea hydrochloride] | 276 | 680 | 593 |  |  |  |  |  |  |
| CCCn1cc2c(nc(NC(=O)Nc3ccc(OC)cc3)n3nc(-c4ccco4)nc23)n1 [Compound 108, 5-[[(4-methoxyphenyl)amino]carbonyl]amino-8-propyl-2-(2-furyl)-pyrazolo[4, 3]-e-1 ,2,4-triazolo[1,5-c]pyrimidine] |  | 1200 | 141 |  |  |  |  |  |  |
| Cn1cc2c(nc(NC(=O)Nc3cccc(Cl)c3)n3nc(-c4ccco4)nc23)n1 [Compound 42, 5-[[(3-Chlorophenyl)amino]carbonyl]amino-8-methyl-2-(2-furyl)-pyrazolo[4,3-e]1,2,4-triazolo[1,5-c]pyrimidine] |  |  |  | > 10000 | 5050 | 0.22 | 22,931 | >45,454 |  |
| COc1ccc(NC(=O)Nc2nc3nn(CCc4ccccc4)cc3c3nc(-c4ccco4)nn23)cc1 [Compound 55, 5-[[(4-Methoxyphenyl)amino]carbonyl]amino-8-(2-(phenyl)ethyl)-2-(2-furyl)-pyrazolo[4,3-e]1,2,4-triazolo[1,5-c]pyrimidine] |  |  |  | 1400 | 1280 | 1.47 | 872 | 951 |  |
| Cn1cc2c(nc(NC(=O)Nc3ccc(S(=O)(=O)N4CCOCC4)cc3)n3nc(-c4ccco4)nc23)n1 [Compound 104] | > 10000 | 726 | 1400 |  |  |  |  |  | Ki [1]: 2.47 nM; hA1/hA3 [1]: 294; hA2A/hA3 [1]: 566; hA2B/hA3 [1]: 4050 |
| CC(C)CCn1cc2c(nc(NC(=O)Nc3cccc(Cl)c3)n3nc(-c4ccco4)nc23)n1 [Compound 50, 5-[[(3-Chlorophenyl)amino]carbonyl]amino-8-isopentyl-2-(2-furyl)-pyrazolo[4,3-e]1,2,4-triazolo[1,5-c]pyrimidine] |  |  |  | 1200 | 1650 | 81.1 | 20 | 15 |  |
| Nc1nc2nn(CCCc3ccccc3)cc2c2nc(-c3ccco3)nn12 [Compound 41, 5-Amino-8-(3-(phenyl)propyl)-2-(2-furyl)-pyrazolo[4,3-e]1,2,4-triazolo[1,5-c]pyrimidine] |  |  |  | 0.59 | 11.1 | 2670 |  |  | affinity at human adenosine A3 receptor subtype (in words) ([5]; discussion of Table 1): low affinity |
| CCn1cc2c(nc(N)n3nc(-c4ccco4)nc23)n1 [Compound 35, 5-Amino-8-ethyl-2-(2-furyl)-pyrazolo[4,3-e]1,2,4-triazolo[1,5-c]pyrimidine] |  |  |  | 11.2 | 95.1 | 3580 | 0.03 | 0.003 |  |
| CCn1cc2c(nc(NC(=O)Nc3ccc(OC)cc3)n3nc(-c4ccco4)nc23)n1 [Compound 109] |  | 1030 | 1040 |  |  |  |  |  | Ki [1]: 0.28 nM; hA1/hA3 [1]: 3660; hA2A/hA3 [1]: 3730 |
| CN(C)c1ccc(NC(=O)Nc2nc3nn(C)cc3c3nc(-c4ccco4)nn23)cc1 [Compound 103, N-[8-methyl-2-(2-furyl)-8H-pyrazolo[4,3-e][1,2,4]triazolo[1,5-c]pyrimidin-5-yl]-N′-[4-(dimethylamino)phenyl]urea hydrochloride] | 609 | > 10000 | > 10000 |  |  |  |  |  |  |
